The supplement of paper PMC10307832

Legend:
Experiment in all cases: relative viability (nuclei count vs DMSO), 5 days (fraction); higher = more cells survive
[1] = compound: O=C(O)c1ccc2c(c1)nc(Nc1cccc(Cl)c1)c1ccncc12 [Silmitasertib] + O=C(CCCCCCC(=O)Nc1ccccc1)NO [Vorinostat] (partner 1 µM)
Procedure, shortened: (§1)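 Relative viability divides the nuclei count in treated wells by that in vehicle wells. Lung cancer cell lines were seeded in 1536-well plates, dosed by pin tool the next day, and fixed and stained after 5 days in one step with final 0.05% Triton X-100, 1% formaldehyde and 1 ug/ml Hoechst. Dosing was a single drug or a fixed anchor-drug dose plus five library-drug doses (not always all listed) in √10 steps, and values are medians of duplicate plates imaged at 4×.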

[2] = compound: O=C(O)c1ccc2c(c1)nc(Nc1cccc(Cl)c1)c1ccncc12 [Silmitasertib] + C[C@]1(O)C[C@@H](c2nc(-c3ccc4ccc(-c5ccccc5)nc4c3)c3c(N)nccn32)C1 [Linsitinib] (partner 1 µM)
Procedure, shortened: as §1

Silmitasertib + Olaparib = compound: O=C(O)c1ccc2c(c1)nc(Nc1cccc(Cl)c1)c1ccncc12 [Silmitasertib] + O=C(c1cc(Cc2n[nH]c(=O)c3ccccc23)ccc1F)N1CCN(C(=O)C2CC2)CC1 [Olaparib] (partner 8 µM)
Procedure, shortened: as §1

[3] = compound: O=C(O)c1ccc2c(c1)nc(Nc1cccc(Cl)c1)c1ccncc12 [Silmitasertib] + Cc1cc(Nc2cc(N3CCN(C)CC3)nc(Sc3ccc(NC(=O)C4CC4)cc3)n2)n[nH]1 [Tozasertib] (partner 0.1 µM)
Procedure, shortened: as §1

[4] = compound: O=C(O)c1ccc2c(c1)nc(Nc1cccc(Cl)c1)c1ccncc12 [Silmitasertib] + Cc1nc(Nc2ncc(C(=O)Nc3c(C)cccc3Cl)s2)cc(N2CCN(CCO)CC2)n1 [Dasatinib] (partner 0.075 µM)
Procedure, shortened: as §1

Cell Line | relative viability ([1]; first compound 0.04 µM) | relative viability ([1]; first compound 0.4 µM) | relative viability ([1]; first compound 1.265 µM) | relative viability ([1]; first compound 4 µM) | relative viability ([2]; first compound 0.04 µM) | relative viability ([2]; first compound 0.4 µM) | relative viability ([2]; first compound 1.265 µM) | relative viability ([2]; first compound 4 µM) | relative viability (Silmitasertib + Olaparib; first compound 0.04 µM) | relative viability (Silmitasertib + Olaparib; first compound 0.4 µM) | relative viability (Silmitasertib + Olaparib; first compound 1.265 µM) | relative viability (Silmitasertib + Olaparib; first compound 4 µM) | relative viability ([3]; first compound 0.04 µM) | relative viability ([3]; first compound 0.4 µM) | relative viability ([3]; first compound 1.265 µM) | relative viability ([3]; first compound 4 µM) | relative viability ([4]; first compound 0.04 µM) | relative viability ([4]; first compound 0.4 µM) | relative viability ([4]; first compound 1.265 µM) | relative viability ([4]; first compound 4 µM)
201T | 1.09 | 0.949 | 1.02 | 0.837 | 1.03 | 1.02 | 0.889 | 1.01 | 0.82 | 0.756 | 0.945 | 0.953 | 0.955 | 0.818 | 1.04 | 1.05 | 0.533 | 0.593 | 0.522 | 0.612
A549 |  |  |  |  | 0.792 |  | 0.507 | 0.678 | 0.301 |  | 0.273 | 0.12 |  |  |  |  |  |  |  | 
A-427 | 0.87 | 0.761 | 0.954 | 0.568 | 1.11 |  | 1.28 | 1.04 | 0.87 | 0.616 | 0.762 | 0.579 | 0.19 |  | 0.132 | 0.15 | 0.724 |  | 0.858 | 0.335
ABC-1 | 1.22 | 0.733 | 0.642 | 0.553 | 0.788 | 1.13 | 0.523 | 0.294 | 0.814 | 0.863 | 0.777 | 0.738 | 0.19 | 0.165 | 0.185 | 0.193 | 0.632 | 0.505 | 0.321 | 0.391
BEN | 0.648 | 0.475 | 0.456 | 0.545 | 1.03 | 0.892 | 1.01 | 0.882 | 1.31 | 0.506 | 0.964 | 1.15 | 0.435 | 0.367 | 0.481 | 0.422 | 0.382 |  | 0.295 | 0.233
CAL-12T | 0.891 | 0.876 | 0.746 | 0.525 | 0.93 | 0.826 | 0.652 | 0.475 | 0.688 | 0.465 | 0.561 | 0.531 | 0.292 | 0.282 | 0.227 | 0.175 | 0.569 | 0.32 | 0.183 | 0.198
COR-L23 | 0.62 | 0.378 | 0.525 | 0.401 | 1.02 | 0.843 | 0.821 | 0.638 | 0.393 | 0.31 | 0.325 | 0.283 | 0.232 | 0.2 | 0.118 | 0.159 | 0.535 | 0.404 | 0.426 | 0.408
COR-L 105 | 0.843 | 0.901 | 0.688 | 0.663 | 0.977 | 0.82 | 0.92 | 0.574 | 0.716 | 0.614 | 0.689 | 0.5 | 0.394 | 0.349 | 0.389 | 0.326 | 0.357 | 0.345 | 0.34 | 0.264
ChaGo-K-1 | 0.786 | 0.574 | 0.62 | 0.539 |  |  |  |  | 0.421 | 0.288 | 0.376 | 0.399 | 0.198 | 0.219 | 0.231 | 0.241 | 0.586 | 0.464 | 0.566 | 0.463
EKVX | 0.951 | 0.464 | 0.541 | 0.584 | 1.15 | 0.869 | 0.711 | 0.677 | 0.889 |  | 0.7 | 0.784 | 0.434 | 0.25 | 0.295 | 0.405 | 0.6 | 0.394 | 0.478 | 0.373
EMC-BAC-2 | 0.595 | 0.455 | 0.287 | 0.169 | 0.891 | 0.769 | 0.709 | 0.686 | 0.477 | 0.358 | 0.333 | 0.283 | 0.291 | 0.272 | 0.198 | 0.162 | 0.34 | 0.301 | 0.283 | 0.287
EPLC-272H | 0.454 | 0.685 | 0.391 | 0.13 | 1.31 |  | 0.84 | 0.862 | 1.02 | 0.563 | 0.489 | 0.0904 | 0.215 |  | 0.205 | 0.187 | 0.372 |  | 0.255 | 0.224
H3255 | 0.747 | 0.772 | 0.868 | 0.645 | 1.09 | 0.944 | 0.903 | 0.991 | 0.579 | 0.492 | 0.549 | 0.53 | 0.756 | 0.593 | 0.678 | 0.59 | 0.364 | 0.34 | 0.298 | 0.349
HARA | 0.627 | 0.301 | 0.464 | 0.416 | 1.1 | 0.753 | 0.77 | 0.729 | 1.25 | 0.595 | 0.634 | 0.276 | 0.107 | 0.0804 | 0.0797 | 0.0693 | 0.254 | 0.246 | 0.253 | 0.272
HCC-15 | 1.02 | 0.699 | 0.579 | 0.671 | 0.882 | 0.681 | 0.671 | 0.475 | 0.777 | 0.508 | 0.595 | 0.39 | 0.392 | 0.356 | 0.232 | 0.133 | 0.669 | 0.53 | 0.396 | 0.32
